Results from ChEMBL document CHEMBL5050844 (2019).

Experiments:
[1] = Induction of anti-CD3/CD28 antibodies-stimulated human T cell activation at 4 uM assessed fold increase in IL-2 secretion measured by ELISA assay; assay type: functional, T cell line
[2] = Induction of anti-CD3/CD28 antibodies-stimulated human T cell activation at 1 uM assessed fold increase in IL-2 secretion measured by ELISA assay; assay type: functional, T cell line
[3] = Induction of anti-CD3/CD28 antibodies-stimulated human T cell activation at 0.3 uM assessed fold increase in IL-2 secretion measured by ELISA assay; assay type: functional, T cell line
[4] = Induction of anti-CD3/CD28 antibodies-stimulated human T cell activation at 4 uM assessed fold increase in CD25 expression measured by ELISA assay; assay type: functional, T cell line
[5] = Induction of anti-CD3/CD28 antibodies-stimulated human T cell activation at 1 uM assessed fold increase in CD25 expression measured by ELISA assay; assay type: functional, T cell line
[6] = Induction of anti-CD3 antibodies-stimulated human T cell activation at 8 uM assessed fold increase in CD25 expression measured by ELISA assay; assay type: functional, T cell line; also: reference of the scale not given here
[7] = Induction of anti-CD3 antibodies-stimulated human T cell activation at 1 uM assessed fold increase in CD25 expression measured by ELISA assay; assay type: functional, T cell line; also: reference of the scale not given here
[8] = Induction of anti-CD3/CD28 antibodies-stimulated human CD4+ T cell activation at 10 uM assessed fold increase in CD69 expression measured by flow cytometry analysis; assay type: functional, T cell line
[9] = Induction of anti-CD3/CD28 antibodies-stimulated human CD4+ T cell activation at 1.11 uM assessed fold increase in CD69 expression measured by flow cytometry analysis; assay type: functional, T cell line
[10] = Induction of anti-CD3/CD28 antibodies-stimulated human CD4+ T cell activation at 10 uM assessed fold increase in cell proliferation measured by flow cytometry analysis; assay type: functional, T cell line
[11] = Induction of anti-CD3/CD28 antibodies-stimulated human CD4+ T cell activation at 1.11 uM assessed fold increase in cell proliferation measured by flow cytometry analysis; assay type: functional, T cell line
[12] = Induction of anti-CD3/CD28 antibodies-stimulated human CD8+ T cell activation at 10 uM assessed fold increase in CD69 expression measured by flow cytometry analysis; assay type: functional, T cell line
[13] = Induction of anti-CD3/CD28 antibodies-stimulated human CD8+ T cell activation at 10 uM assessed fold increase in cell proliferation measured by flow cytometry analysis; assay type: functional, T cell line
[14] = Induction of anti-CD3/CD28 antibodies-stimulated human CD8+ T cell activation at 1.11 uM assessed fold increase in cell proliferation measured by flow cytometry analysis; assay type: functional, T cell line
[15] = Induction of anti-CD3 antibodies-stimulated human CD4+ T cell activation at 1.11 uM assessed fold increase in CD69 expression measured by flow cytometry analysis; assay type: functional, T cell line; also: reference of the scale not given here
[16] = Induction of anti-CD3 antibodies-stimulated human CD8+ T cell activation at 10 uM assessed fold increase in CD69 expression measured by flow cytometry analysis; assay type: functional, T cell line; also: reference of the scale not given here
[17] = Induction of anti-CD3 antibodies-stimulated human CD8+ T cell activation at 1.11 uM assessed fold increase in CD69 expression measured by flow cytometry analysis; assay type: functional, T cell line; also: reference of the scale not given here
[18] = Induction of anti-CD3/CD28 antibodies-stimulated human T cell activation at 1.11 uM assessed fold increase in GM-CSF secretion measured by ELISA assay; assay type: functional, T cell line
[19] = Induction of anti-CD3 antibodies-stimulated human T cell activation at 1.11 uM assessed fold increase in GM-CSF secretion measured by ELISA assay; assay type: functional, T cell line; also: reference of the scale not given here
[20] = Induction of anti-CD3/CD28 antibodies-stimulated human T cell activation at 10 uM assessed fold increase in TNF-alpha secretion measured by ELISA assay; assay type: functional, T cell line
[21] = Induction of anti-CD3/CD28 antibodies-stimulated human T cell activation at 1.11 uM assessed fold increase in TNF-alpha secretion measured by ELISA assay; assay type: functional, T cell line
[22] = Induction of anti-CD3 antibodies-stimulated human T cell activation at 10 uM assessed fold increase in TNF-alpha secretion measured by ELISA assay; assay type: functional, T cell line; also: reference of the scale not given here
[23] = Induction of anti-CD3 antibodies-stimulated human T cell activation at 1.11 uM assessed fold increase in TNF-alpha secretion measured by ELISA assay; assay type: functional, T cell line; also: reference of the scale not given here
[24] = Induction of anti-CD3 antibodies-stimulated human T cell activation at 1.11 uM assessed fold increase in IFN-gamma secretion measured by ELISA assay; assay type: functional, T cell line; also: reference of the scale not given here
[25] = Induction of allogenic human T cell activation at 10 uM assessed fold increase in cell proliferation; assay type: functional, T cell line
[26] = Induction of allogenic human T cell activation at 3 uM assessed fold increase in cell proliferation; assay type: functional, T cell line
[27] = Induction of anti-CD3 antibodies-stimulated human exhausted T cell activation assessed fold increase in IFN-gamma secretion measured by ELISA assay; assay type: functional, T cell line; also: reference of the scale not given here
[28] = Induction of anti-CD3 antibodies-stimulated human exhausted T cell activation assessed fold increase in IL-2 secretion measured by ELISA assay; assay type: functional, T cell line; also: reference of the scale not given here
[29] = Induction of anti-CD3/CD28 antibodies-stimulated human anergic T cell activation at 10 uM assessed fold increase in IFN-gamma secretion measured by ELISA assay; assay type: functional, T cell line
[30] = Induction of anti-CD3/CD28 antibodies-stimulated human anergic T cell activation at 1.11 uM assessed fold increase in IFN-gamma secretion measured by ELISA assay; assay type: functional, T cell line
[31] = Induction of anti-CD3/CD28 antibodies-stimulated human anergic T cell activation at 0.37 uM assessed fold increase in IFN-gamma secretion measured by ELISA assay; assay type: functional, T cell line
B cell = assay: Induction of anti-IgM-stimulated human CD20+ B cell activation at 10 to 1000 uM assessed as increase in CD69 expression measured as mean fluorescence intensity AUC by flow cytometry analysis; assay type: functional, cell-based; conditions: dose 10-1000 µM
[32] = Induction of activation of human CD56+ CD3- NK cells co-cultured with human K562 cells in 1:1 ratio and assessed as increase in IFN-gamma secretion at 10 uM measured by ELISA assay; assay type: functional, Natural killer cell
[33] = Induction of activation of human CD56+ CD3- NK cells co-cultured with human K562 cells in 1:1 ratio and assessed as increase in TNF-alpha secretion at 10 uM measured by ELISA assay; assay type: functional, Natural killer cell
[34] = Induction of activation of human CD56+ CD3- NK cells co-cultured with human K562 cells in 1:1 ratio and assessed as increase in IFN-gamma secretion at 2.5 uM measured by ELISA assay; assay type: functional, Natural killer cell
[35] = Induction of activation of human CD56+ CD3- NK cells co-cultured with human K562 cells in 1:1 ratio and assessed as increase in IFN-gamma secretion at 0.625 uM measured by ELISA assay; assay type: functional, Natural killer cell
[36] = Induction of activation of human CD56+ CD3- NK cells co-cultured with human K562 cells in 1:1 ratio and assessed as increase in TNF-alpha secretion at 2.5 uM measured by ELISA assay; assay type: functional, Natural killer cell
[37] = Induction of activation of human CD56+ CD3- NK cells co-cultured with human K562 cells in 1:1 ratio and assessed as increase in TNF-alpha secretion at 0.625 uM measured by ELISA assay; assay type: functional, Natural killer cell

For Cc1n[nH]c(C)c1-c1cc2c(c(C(F)(F)F)c1)CN(c1cccc(C3(Cc4nncn4C)COC3)c1)C2=O, the “fold change (FC)” value [1] was “>=7.5”, the “fold change (FC)” value [2] was 2.51 and the “fold change (FC)” value [3] was 1.01. For the same compound, the “fold change (FC)” value [4] was 1.31, the “fold change (FC)” value [5] was 1.01 and the “fold change (FC)” value [6] was “>=1.001”. For the same compound, the “fold change (FC)” value [7] was “>=1.001”, the “fold change (FC)” value [8] was 1.401 and the “fold change (FC)” value [9] was 1.201. For the same compound, the “fold change (FC)” value [10] was greater than 4, the “fold change (FC)” value [11] was greater than 4 and the “fold change (FC)” value [12] was 1.201. For the same compound, the “fold change (FC)” value [13] was 3.01, the “fold change (FC)” value [14] was 2.01 and the “fold change (FC)” value [15] was 1.401. For the same compound, the “fold change (FC)” value [16] was 1.401, the “fold change (FC)” value [17] was 1.201 and the “fold change (FC)” value [18] was 1.51. The “fold change (FC)” value [19] was 1.51, the “fold change (FC)” value [20] was 2.01 and the “fold change (FC)” value [21] was 1.51. The “fold change (FC)” value [22] was 1.51, the “fold change (FC)” value [23] was “<=1.5” and the “fold change (FC)” value [24] was “<=2”. For the same compound, the “fold change (FC)” value [25] was “<=2”, the “fold change (FC)” value [26] was “<=2” and the “fold change (FC)” value [27] was 1.41. For the same compound, the “fold change (FC)” value [28] was “<=2.5”, the “fold change (FC)” value [29] was greater than 4.01 and the “fold change (FC)” value [30] was “<=2.5”. For the same compound, the “fold change (FC)” value [31] was “<=2.5”, the AUC (B cell) was 1.01 and the “fold change (FC)” value [32] was 2.01. The “fold change (FC)” value [33] was 2.01, the “fold change (FC)” value [34] was 1.01 and the “fold change (FC)” value [35] was 1.01. For the same compound, the “fold change (FC)” value [36] was 1.01 and the “fold change (FC)” value [37] was “<=1”.

With Cn1cnnc1CC1(c2cccc(N3Cc4c(cc(CN5CC[C@H](C#N)C5)cc4C(F)(F)F)C3=O)c2)COC1 the “fold change (FC)” value [1] was “>=7.5”, the “fold change (FC)” value [2] was “>=7.5” and the “fold change (FC)” value [3] was 5. For the same compound, the “fold change (FC)” value [4] was 1.31, the “fold change (FC)” value [5] was 1.31 and the “fold change (FC)” value [6] was “>=1.001”. For the same compound, the “fold change (FC)” value [7] was “>=1.001”, the “fold change (FC)” value [8] was 1.401 and the “fold change (FC)” value [9] was 1.201. The “fold change (FC)” value [10] was greater than 4, the “fold change (FC)” value [11] was greater than 4 and the “fold change (FC)” value [12] was 1.201. For the same compound, the “fold change (FC)” value [13] was 3.01, the “fold change (FC)” value [14] was 2.01 and the “fold change (FC)” value [15] was 1.401. For the same compound, the “fold change (FC)” value [16] was 1.201, the “fold change (FC)” value [17] was “<=1.2” and the “fold change (FC)” value [18] was 2.01. For the same compound, the “fold change (FC)” value [19] was 2.01, the “fold change (FC)” value [20] was 2.01 and the “fold change (FC)” value [21] was 2.01. The “fold change (FC)” value [22] was 1.51, the “fold change (FC)” value [23] was “<=1.5” and the “fold change (FC)” value [24] was “<=2”. The “fold change (FC)” value [25] was 2.01, the “fold change (FC)” value [26] was “<=2” and the “fold change (FC)” value [27] was “<=1.4”. The “fold change (FC)” value [28] was “<=2.5”, the “fold change (FC)” value [29] was 2.51 and the “fold change (FC)” value [30] was 2.51. The “fold change (FC)” value [31] was “<=2.5”, the AUC (B cell) was 1.01 and the “fold change (FC)” value [32] was 2.01. For the same compound, the “fold change (FC)” value [33] was 2.01, the “fold change (FC)” value [34] was 1.01 and the “fold change (FC)” value [35] was 2.01. For the same compound, the “fold change (FC)” value [36] was 1.01 and the “fold change (FC)” value [37] was 1.01.

For C[C@H](c1cc2c(c(C(F)(F)F)c1)CN(c1cccc(C3(Cc4nncn4C)COC3)c1)C2=O)N1CC[C@H](F)C1, the “fold change (FC)” value [1] was “>=7.5”, the “fold change (FC)” value [2] was “>=7.5” and the “fold change (FC)” value [3] was 5. The “fold change (FC)” value [4] was 1.31, the “fold change (FC)” value [5] was 1.51 and the “fold change (FC)” value [6] was “>=1.001”. For the same compound, the “fold change (FC)” value [7] was “>=1.001”, the “fold change (FC)” value [8] was greater than 1.601 and the “fold change (FC)” value [9] was 1.401. For the same compound, the “fold change (FC)” value [10] was greater than 4, the “fold change (FC)” value [11] was greater than 4 and the “fold change (FC)” value [12] was 1.201. For the same compound, the “fold change (FC)” value [13] was greater than 4, the “fold change (FC)” value [14] was 3.01 and the “fold change (FC)” value [15] was 1.401. For the same compound, the “fold change (FC)” value [16] was 1.401, the “fold change (FC)” value [17] was 1.201 and the “fold change (FC)” value [18] was 2.01. For the same compound, the “fold change (FC)” value [19] was 1.51, the “fold change (FC)” value [20] was 2.01 and the “fold change (FC)” value [21] was 2.01. The “fold change (FC)” value [22] was 1.51, the “fold change (FC)” value [23] was 1.51 and the “fold change (FC)” value [24] was 2.01. For the same compound, the “fold change (FC)” value [25] was greater than 3, the “fold change (FC)” value [26] was 2.01 and the “fold change (FC)” value [27] was greater than 1.61. The “fold change (FC)” value [28] was greater than 3.01, the “fold change (FC)” value [29] was greater than 4.01 and the “fold change (FC)” value [30] was greater than 4.01. The “fold change (FC)” value [31] was 2.51, the AUC (B cell) was 1.01 and the “fold change (FC)” value [32] was “>=5”. The “fold change (FC)” value [33] was “>=5”, the “fold change (FC)” value [34] was 2.01 and the “fold change (FC)” value [35] was 2.01. For the same compound, the “fold change (FC)” value [36] was 2.01 and the “fold change (FC)” value [37] was 2.01.
